Test system: MRC-9 cells
Assay: Multiplex high-content viability assessment
Type: cell-based
Details: human fibroblast
How it was run: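 HEK293T and U2OS cells (DMEM) and MRC-9 fibroblasts (EMEM) exposed to compounds at 1 and 10 μM. Live-cell confocal imaging of cell shape and fluorescence before and at 12, 24 and 48 h. Normalized to 0.1% DMSO; biological duplicates with SEM.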

[1] = 1 µM, 0 h after treatment, biological replicate 1
[2] = 1 µM, 0 h after treatment, biological replicate 2
[3] = 1 µM, 12 h after treatment, biological replicate 1
[4] = 1 µM, 12 h after treatment, biological replicate 2
[5] = 1 µM, 24 h after treatment, biological replicate 1
[6] = 1 µM, 24 h after treatment, biological replicate 2
[7] = 1 µM, 48 h after treatment, biological replicate 1
[8] = 1 µM, 48 h after treatment, biological replicate 2
[9] = 10 µM, 0 h after treatment, biological replicate 1
[10] = 10 µM, 0 h after treatment, biological replicate 2
[11] = 10 µM, 12 h after treatment, biological replicate 1
[12] = 10 µM, 12 h after treatment, biological replicate 2
[13] = 10 µM, 24 h after treatment, biological replicate 1
[14] = 10 µM, 24 h after treatment, biological replicate 2
[15] = 10 µM, 48 h after treatment, biological replicate 1
[16] = 10 µM, 48 h after treatment, biological replicate 2

CC(C)C(=O)Nc1ncc(C(=O)NCCN(Cc2ccccc2)C(=O)c2ccc(S(=O)(=O)Nc3ccccc3)cc2)s1 [TH470]
Cell count normalized to cells treated with DMSO control [1]: 0.8608
Cell count per well [1]: 129
Population Fragmented Nuclei (%) [1]: 29.31%
Population Healthy Nuclei (%) [1]: 61.21%
Population Pyknosed Nuclei (%) [1]: 9.48%
Population apoptotic cell (%) [1]: 36.36%
Population cell that influence microtubule strucutre (%) [1]: 19.72%
Population with increased mitochondrial mass (%) [1]: 8.45%
Population with membrane disruption (%) [1]: 1.41%
Cell count normalized to cells treated with DMSO control [2]: 0.9307
Cell count per well [2]: 166
Population Fragmented Nuclei (%) [2]: 25.00%
Population Healthy Nuclei (%) [2]: 44.23%
Population Pyknosed Nuclei (%) [2]: 30.77%
Population apoptotic cell (%) [2]: 35.42%
Population cell that influence microtubule strucutre (%) [2]: 44.93%
Population with increased mitochondrial mass (%) [2]: 11.59%
Population with membrane disruption (%) [2]: 10.14%
Cell count normalized to cells treated with DMSO control [3]: 0.8102
Cell count per well [3]: 122
Population Fragmented Nuclei (%) [3]: 23.93%
Population Healthy Nuclei (%) [3]: 62.39%
Population Pyknosed Nuclei (%) [3]: 13.68%
Population apoptotic cell (%) [3]: 43.75%
Population cell that influence microtubule strucutre (%) [3]: 27.40%
Population with increased mitochondrial mass (%) [3]: 4.11%
Population with membrane disruption (%) [3]: 2.74%
Cell count normalized to cells treated with DMSO control [4]: 0.8825
Cell count per well [4]: 147
Population Fragmented Nuclei (%) [4]: 34.51%
Population Healthy Nuclei (%) [4]: 42.25%
Population Pyknosed Nuclei (%) [4]: 23.24%
Population apoptotic cell (%) [4]: 36.36%
Population cell that influence microtubule strucutre (%) [4]: 73.33%
Population with increased mitochondrial mass (%) [4]: 13.33%
Population with membrane disruption (%) [4]: 15.00%
Cell count normalized to cells treated with DMSO control [5]: 0.8356
Cell count per well [5]: 126
Population Fragmented Nuclei (%) [5]: 27.27%
Population Healthy Nuclei (%) [5]: 57.02%
Population Pyknosed Nuclei (%) [5]: 15.70%
Population apoptotic cell (%) [5]: 63.16%
Population cell that influence microtubule strucutre (%) [5]: 34.78%
Population with increased mitochondrial mass (%) [5]: 4.35%
Population with membrane disruption (%) [5]: 1.45%
Cell count normalized to cells treated with DMSO control [6]: 0.9099
Cell count per well [6]: 150
Population Fragmented Nuclei (%) [6]: 42.18%
Population Healthy Nuclei (%) [6]: 40.82%
Population Pyknosed Nuclei (%) [6]: 17.01%
Population apoptotic cell (%) [6]: 56.00%
Population cell that influence microtubule strucutre (%) [6]: 61.67%
Population with increased mitochondrial mass (%) [6]: 10.00%
Population with membrane disruption (%) [6]: 18.33%
Cell count normalized to cells treated with DMSO control [7]: 0.8239
Cell count per well [7]: 125
Population Fragmented Nuclei (%) [7]: 33.87%
Population Healthy Nuclei (%) [7]: 54.03%
Population Pyknosed Nuclei (%) [7]: 12.10%
Population apoptotic cell (%) [7]: 60.00%
Population cell that influence microtubule strucutre (%) [7]: 41.79%
Population with increased mitochondrial mass (%) [7]: 4.48%
Population with membrane disruption (%) [7]: 1.49%
Cell count normalized to cells treated with DMSO control [8]: 0.9026
Cell count per well [8]: 147
Population Fragmented Nuclei (%) [8]: 48.98%
Population Healthy Nuclei (%) [8]: 42.18%
Population Pyknosed Nuclei (%) [8]: 8.84%
Population apoptotic cell (%) [8]: 69.23%
Population cell that influence microtubule strucutre (%) [8]: 61.29%
Population with increased mitochondrial mass (%) [8]: 16.13%
Population with membrane disruption (%) [8]: 9.68%
Cell count normalized to cells treated with DMSO control [9]: 1.121
Cell count per well [9]: 168
Population Fragmented Nuclei (%) [9]: 21.21%
Population Healthy Nuclei (%) [9]: 57.58%
Population Pyknosed Nuclei (%) [9]: 21.21%
Population apoptotic cell (%) [9]: 25.71%
Population cell that influence microtubule strucutre (%) [9]: 17.89%
Population with increased mitochondrial mass (%) [9]: 6.32%
Population with membrane disruption (%) [9]: 1.05%
Cell count normalized to cells treated with DMSO control [10]: 0.8074
Cell count per well [10]: 144
Population Fragmented Nuclei (%) [10]: 27.54%
Population Healthy Nuclei (%) [10]: 50.00%
Population Pyknosed Nuclei (%) [10]: 22.46%
Population apoptotic cell (%) [10]: 38.71%
Population cell that influence microtubule strucutre (%) [10]: 49.28%
Population with increased mitochondrial mass (%) [10]: 15.94%
Population with membrane disruption (%) [10]: 2.90%
Cell count normalized to cells treated with DMSO control [11]: 1.202
Cell count per well [11]: 181
Population Fragmented Nuclei (%) [11]: 19.88%
Population Healthy Nuclei (%) [11]: 54.97%
Population Pyknosed Nuclei (%) [11]: 25.15%
Population apoptotic cell (%) [11]: 39.53%
Population cell that influence microtubule strucutre (%) [11]: 77.66%
Population with increased mitochondrial mass (%) [11]: 9.57%
Population with membrane disruption (%) [11]: 3.19%
Cell count normalized to cells treated with DMSO control [12]: 0.9125
Cell count per well [12]: 152
Population Fragmented Nuclei (%) [12]: 31.25%
Population Healthy Nuclei (%) [12]: 34.03%
Population Pyknosed Nuclei (%) [12]: 34.72%
Population apoptotic cell (%) [12]: 54.00%
Population cell that influence microtubule strucutre (%) [12]: 91.84%
Population with increased mitochondrial mass (%) [12]: 14.29%
Population with membrane disruption (%) [12]: 18.37%
Cell count normalized to cells treated with DMSO control [13]: 1.167
Cell count per well [13]: 176
Population Fragmented Nuclei (%) [13]: 24.85%
Population Healthy Nuclei (%) [13]: 52.66%
Population Pyknosed Nuclei (%) [13]: 22.49%
Population apoptotic cell (%) [13]: 57.89%
Population cell that influence microtubule strucutre (%) [13]: 78.65%
Population with increased mitochondrial mass (%) [13]: 19.10%
Population with membrane disruption (%) [13]: 1.12%
Cell count normalized to cells treated with DMSO control [14]: 0.825
Cell count per well [14]: 136
Population Fragmented Nuclei (%) [14]: 34.62%
Population Healthy Nuclei (%) [14]: 32.31%
Population Pyknosed Nuclei (%) [14]: 33.08%
Population apoptotic cell (%) [14]: 44.19%
Population cell that influence microtubule strucutre (%) [14]: 88.10%
Population with increased mitochondrial mass (%) [14]: 19.05%
Population with membrane disruption (%) [14]: 16.67%
Cell count normalized to cells treated with DMSO control [15]: 1.081
Cell count per well [15]: 164
Population Fragmented Nuclei (%) [15]: 23.18%
Population Healthy Nuclei (%) [15]: 54.97%
Population Pyknosed Nuclei (%) [15]: 21.85%
Population apoptotic cell (%) [15]: 48.48%
Population cell that influence microtubule strucutre (%) [15]: 89.16%
Population with increased mitochondrial mass (%) [15]: 22.89%
Population with membrane disruption (%) [15]: 0.00%
Cell count normalized to cells treated with DMSO control [16]: 0.7798
Cell count per well [16]: 127
Population Fragmented Nuclei (%) [16]: 44.35%
Population Healthy Nuclei (%) [16]: 37.90%
Population Pyknosed Nuclei (%) [16]: 17.74%
Population apoptotic cell (%) [16]: 63.64%
Population cell that influence microtubule strucutre (%) [16]: 89.36%
Population with increased mitochondrial mass (%) [16]: 17.02%
Population with membrane disruption (%) [16]: 17.02%

Reference: publication PMC12090182, “Repurposing of the RIPK1-Selective Benzo[1,4]oxazepin-4-one Scaffold for the Development of a Type III LIMK1/2 Inhibitor” (ACS Chemical Biology, 2025)
